Results reported in US20240262814A1, “MODULATORS OF TREX1” (Constellation Pharmaceuticals, Inc., priority 2021, published 2024).

Tests used:
human TREX2 = target: T1, human TREX2 (Homo sapiens, UniProt Q9BQ50); assay: hTREX2 Biochemical Assay (selectivity hTREX1 vs hTREX2); settings: biochemical selectivity for hTREX1 vs hTREX2
T1 construct: human TREX2 (residues M44-A279, expressed in E. coli); made in house; host or cells: E. coli
T1 sequence (Q9BQ50 44-279 isoform Q9BQ50-1): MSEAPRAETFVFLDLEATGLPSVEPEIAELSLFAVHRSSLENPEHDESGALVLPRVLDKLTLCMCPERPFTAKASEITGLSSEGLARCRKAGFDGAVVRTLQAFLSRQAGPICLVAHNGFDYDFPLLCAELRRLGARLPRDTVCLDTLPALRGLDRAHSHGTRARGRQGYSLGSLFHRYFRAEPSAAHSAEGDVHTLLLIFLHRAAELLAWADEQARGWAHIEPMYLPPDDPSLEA
Procedure, shortened: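 His-Tev-tagged human TREX2 (M44-A279, E. coli-expressed) preincubated with compound (10-point dose-response) for 4 h at 25 °C in Tris pH 7.4 buffer with 5 mM MgCl2. Reaction then run with 60 nM TEX615/quencher dsDNA and 50 pM enzyme (1% DMSO) for 18 h at 25 °C and EDTA-quenched. Fluorescence read at 615 nm (ex 570 nm); IC50 by four-parameter fit against pre-quenched and no-inhibitor controls.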

human TREX1 = target: T2, human TREX1 (Homo sapiens, UniProt Q9NSU2); assay: hTREX1 Biochemical Assay (fluorescence, dsDNA substrate degradation); settings: full length human TREX1, 4 h pre-incubation, 18 h reaction at 25° C.
T2 construct: N-terminally His-Tev tagged full length human TREX1; made in house; host or cells: E. coli
T2 sequence (Q9NSU2 1-314): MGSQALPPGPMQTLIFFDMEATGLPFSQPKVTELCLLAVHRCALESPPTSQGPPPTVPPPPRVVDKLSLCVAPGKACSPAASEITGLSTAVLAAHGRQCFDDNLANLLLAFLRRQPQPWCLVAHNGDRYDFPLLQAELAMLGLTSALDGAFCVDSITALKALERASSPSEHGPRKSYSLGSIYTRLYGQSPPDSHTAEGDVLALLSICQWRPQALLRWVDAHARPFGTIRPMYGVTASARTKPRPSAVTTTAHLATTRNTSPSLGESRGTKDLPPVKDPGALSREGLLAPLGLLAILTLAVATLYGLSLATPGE
Procedure, shortened: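 His-Tev-tagged full-length E. coli-expressed enzyme (4 pM final) preincubated with compound 4 h at 25° C., then 60 nM quenched-fluorophore dsDNA added in Tris pH 7.4, 5 mM MgCl2, 1% DMSO. After 18 h at 25° C., EDTA-quenched; fluorescence 615 nm (ex 570 nm); IC50 from four-parameter fit versus EDTA and no-inhibitor controls.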

Compound	hTREX1 vs hTREX2 selectivity (human TREX2)	IC50 (human TREX1)
C[C@H](c1nc(C(=O)Nc2cnoc2)c(O)c(=O)n1C)[C@H](c1ccccc1)c1ccccc1Cl (single isomer, unassigned) [Example 2 Isomer 3, 2-(1-(2-chlorophenyl)-1-phenylpropan-2-yl)-5-hydroxy-N-(isoxazol-4-yl)-1-methyl-6-oxo-1,6-dihydropyrimidine-4-carboxamide]	B (B = 25 to 50 fold selective for hTREX1)	< 1 nM
CC(c1nc(C(=O)Nc2cnoc2)c(O)c(=O)n1C)C(c1ccccc1)c1ccccc1C#N (single isomer, unassigned) [Example 3 Isomer 4]	B (B = 25 to 50 fold selective for hTREX1)	< 1 nM
CC(c1nc(C(=O)Nc2cnoc2)c(O)c(=O)n1C)C(c1ccccc1)c1cc(F)ccc1C#N (single isomer, unassigned) [Example 6 Isomer 4]	B (B = 25 to 50 fold selective for hTREX1)	< 1 nM
CC(c1nc(C(=O)Nc2cnoc2)c(O)c(=O)n1C)C(c1ccccc1)c1cc(Cl)ccc1C#N (single isomer, unassigned) [Example 8 Isomer 2]	C (C = >50 fold selective for hTREX1)	< 1 nM
CC(c1nc(C(=O)Nc2cnoc2)c(O)c(=O)n1C)C(c1ccccc1)c1ccc(Cl)cc1C#N (single isomer, unassigned) [Example 9 Isomer 4]	B (B = 25 to 50 fold selective for hTREX1)	< 1 nM
CC(c1nc(C(=O)Nc2cnoc2)c(O)c(=O)n1C)C(c1ccccc1Cl)c1ccccc1C#N (single isomer, unassigned) [Example 10 Isomer 1]	C (C = >50 fold selective for hTREX1)	< 1 nM
CC(c1nc(C(=O)Nc2cnoc2)c(O)c(=O)n1C)C(c1cc(F)cc(F)c1)c1ccccc1C#N (single isomer, unassigned) [Example 11 Isomer 3]	B (B = 25 to 50 fold selective for hTREX1)	< 1 nM
C[C@H](c1nc(C(=O)Nc2cnoc2)c(O)c(=O)n1C)C(c1ccccc1Cl)c1ccccc1Cl (single isomer, unassigned) [Example 15 Isomer 1, 2-(1,1-bis(2-chlorophenyl)propan-2-yl)-5-hydroxy-N-(isooxazol-4-yl)-1-methyl-6-oxo-1,6-dihydropyrimidine-4-carboxamide]	C (C = >50 fold selective for hTREX1)	< 1 nM
CC(c1nc(C(=O)Nc2cnoc2)c(O)c(=O)n1C)C(c1ccccc1)c1cc(C(=O)N(C)C)ccc1C#N (single isomer, unassigned) [Example 17 Isomer 3]	B (B = 25 to 50 fold selective for hTREX1)	< 1 nM

Continued, values first:

hTREX1 vs hTREX2 selectivity (human TREX2)	IC50 (human TREX1)	Compound
A (A = <25 fold selective for hTREX1)	> 100 nM	CC(c1nc(C(=O)Nc2cnoc2)c(O)c(=O)n1C)C(c1ccccc1)c1ccccc1 (single isomer, unassigned) [Example 1 Isomer 1, 2-(1,1-diphenylpropan-2-yl)-5-hydroxy-N-(isoxazol-4-yl)-1-methyl-6-oxo-1,6-dihydro pyrimidine-4-carboxamide]
A (A = <25 fold selective for hTREX1)	1 to 10 nM	CC(c1nc(C(=O)Nc2cnoc2)c(O)c(=O)n1C)C(c1ccccc1)c1ccccc1 (single isomer, unassigned) [Example 1 Isomer 2, 2-(1,1-diphenylpropan-2-yl)-5-hydroxy-N-(isoxazol-4-yl)-1-methyl-6-oxo-1,6-dihydro pyrimidine-4-carboxamide]
C (C = >50 fold selective for hTREX1)	< 1 nM	CC(c1nc(C(=O)Nc2cnoc2)c(O)c(=O)n1C)C(c1ccccc1C#N)c1ccccc1C#N (single isomer, unassigned) [Example 4 Isomer 2]
C (C = >50 fold selective for hTREX1)	1 to 10 nM	C[C@H](c1nc(C(=O)Nc2cnoc2)c(O)c(=O)n1C)[C@H](c1ccccc1)c1ccccc1C(F)(F)F (single isomer, unassigned) [Example 14 Isomer 2, 5-Hydroxy-N-(isoxazol-4-yl)-1-methyl-6-oxo-2-(1-phenyl-1-(2-(trifluoromethyl)phenyl)propan-2-yl)-1,6-dihydropyrimidine-4-carboxamide]
A (A = <25 fold selective for hTREX1)	10 to 100 nM	Cn1c([C@H](C(c2ccccc2)c2ccccc2)C(F)(F)F)nc(C(=O)Nc2cnoc2)c(O)c1=O (single isomer, unassigned) [Example 20 Isomer 1, 5-Hydroxy-N-(isoxazol-4-yl)-1-methyl-6-oxo-2-(1,1,1-trifluoro-3,3-diphenylpropan-2-yl)-1,6-dihydropyrimidine-4-carboxamide]
C (C = >50 fold selective for hTREX1)	< 1 nM	Cn1c([C@@H](C(c2ccccc2C#N)c2ccccc2C#N)C(F)(F)F)nc(C(=O)Nc2cnoc2)c(O)c1=O (single isomer, unassigned) [Example 21 Isomer 1, 2-(3,3-bis(2-cyanophenyl)-1,1,1-trifluoropropan-2-yl)-5-hydroxy-N-(isoxazol-4-yl)-1-methyl-6-oxo-1,6-dihydropyrimidine-4-carboxamide]
